# Data taken from patent US20100080862A1, “COMPOSITIONS AND FOODS FOR IMPROVING LIPID METABOLISM” (Kirin Beer Kabushiki Kaisha, priority 2002, published 2010).
# How the values were obtained:
# [1] = test system: human PPARγ; test: PPARγ agonist screening system, PPRE luciferase reporter in CV-1 cells (Example 9); assay type: cell-based; details: for PPARγ/RXR alpha activating activity compared to that with 1 μM pioglitazone: at a concentration of 10 μm; for PPARγ/RXR alpha activating activity (relative luciferase activity): concentrations of 1, 5, 10, and 50 μM, 48 hours
# Text: In order to construct a human PPARγ expression plasmid, a PPARγ ORF was cloned from the human heart cDNA library (Gibco). After the sequence was confirmed, the cloned ORF was ligated to the NheI-SalI site of the expression vector pCI neo (Promega). The sequences of primers used for the cloning were as follows: […]
# Next, in order to construct a reporter plasmid, oligo DNAs having 3 copies of PPRE was constructed and inserted at the KpnI-BglII site of the firefly luciferase reporter vector pGL3-promoter vector (Promega), after which the sequences were confirmed. The sequences of oligo-DNAs containing PPRE are as follows:
# CV-1 cells were transfected with the above-mentioned plasmid along with the renilla luciferase reporter vector pRL-SV40 vector for compensation (Promega) using Lipofect AMINE (Gibco). The CV-1 cells used were cultured at a concentration of 5×10^4 cells/ml in 2 ml of DMEM (Gibco) supplemented with 10% fetal calf serum (Gibco) and penicillin-streptomycin (10000 units and 1 mg/ml, respectively; Gibco) on a 12-well plate at 37° C. in an atmosphere of 5% CO2 on the day before transfection. After the transfection, cells for the positive control were cultured in the abovementioned DMEM medium containing 1 μm pioglitazone (Takeda). After cultivating for 48 hours, the cells were recovered and the lysate was prepared using a Dual-Luciferase reporter assay system (Promega) to measure firefly luciferase and renilla luciferase activity using a luminometer (Luminous CT-9000D, DIA-IATRON). Relative luciferase activity was obtained by dividing the value for firefly luciferase activity by the value for renilla luciferase activity.
# [2] = test system: C57BL/6 mice fed high fat diet; test: Oral glucose tolerance test in mice with high fat diet-induced insulin resistance (Example 15); assay type: in vivo
# Procedure: C57BL/6 mice were fed the high fat diet shown in Example 8 for 12 weeks to induce insulin resistance and then orally administered with the water soluble hop extract for 10 consecutive days (100 and 330 mg/kg/day). After completion of the administration, animals were fasted for 16 hours and then subjected to an oral glucose tolerance test (OGTT). […] After completion of the administration, animals were fasted for 16 hours and then subjected to an oral glucose tolerance test (OGTT). In OGTT, after blood sampling and blood sugar measurement, 1 g/kg of aqueous glucose solution was administered (at time zero), after which blood sampling and blood sugar measurement were carried out at 15, 30, and 60 minutes and blood sugar measurement was carried out at 120 minutes. Change with time in the blood insulin level was measured using an insulin measuring kit (Morinaga Seikagaku Institute).
# [3] = target: T1, fused protein of PPARγ with yeast Gal4 protein (Homo sapiens, UniProt P37231); test: PPARγ agonist screening system consisting of a fused protein, Gal4 luciferase reporter in CV-1 cells (Example 10); assay type: cell-based; details: humulone compounds at 1, 3, and 10 μM, 48 hours
# T1 construct: 204a.a.-505a.a) was cloned; expressed in transfected cells; host or cells: CV-1 cells
# T1 sequence (P37231 204-505): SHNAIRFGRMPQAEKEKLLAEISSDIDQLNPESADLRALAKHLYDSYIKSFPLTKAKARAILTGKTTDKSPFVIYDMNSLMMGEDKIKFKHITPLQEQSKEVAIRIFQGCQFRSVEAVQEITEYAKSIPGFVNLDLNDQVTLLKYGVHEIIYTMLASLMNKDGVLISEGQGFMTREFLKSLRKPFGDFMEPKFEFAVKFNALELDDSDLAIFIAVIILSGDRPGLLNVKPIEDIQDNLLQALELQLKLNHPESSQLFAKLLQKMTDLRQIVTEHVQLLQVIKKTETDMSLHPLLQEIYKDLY
# Text: In order to construct a human PPARγ expression plasmid, a PPARγ ligand binding domain (LBD; 204a.a.-505a.a) was cloned from the human heart cDNA library (Gibco). After the sequence was confirmed, the cloned ORF was ligated to the BamHI-Kpn1 site of the expression vector pBind (Promega) to construct the expression vector pGR-Gal4-PPARγ which expresses a fused protein of PPARγ with yeast Gal4 protein. The sequences of primers used for the cloning are as follows: […]
# Next, an N terminal sequence (1a.a-76a.a) of the human glucocorticoid receptor (GR) was ligated to the N-terminal of the Gal4 region of pBind so that the reading frame coincided with Gal4. The GR was cloned from the heart cDNA library (Gibco) using PCR. The sequences of primers used for the cloning are as follows: […]
# As a reporter plasmid, firefly luciferase expression vector pG5luc (Promega) having 5 copies of the Gal4 binding site introduced into the promoter region was used. CV-1 cells were transfected with the pGR-Gal4-PPARγ and the pG5luc using Lipofect AMINE (Gibco). After the transfection, the medium was replaced with a medium (DMEN, Gibco) with addition of a test sample or control (pioglitazone), and cells were recovered after cultivation for 48 hours. After the cell recovery, cell lysate was prepared using a Dual-Luciferase reporter assay system (Promega) to measure firefly luciferase activity using a luminometer (Luminous CT-9000D, DIA-IATRON). Further, the protein concentration of the cell lysate was measured using a Dc Protein assay (BIO-RAD) to standardize the value of firefly luciferase activity for the protein concentration. The result was expressed as a relative value by setting the value of the negative control to be 1.
# [4] = test system: C57BL/6 mice (females); test: Improving effect of fractionated lupulone on lipid metabolism in mice (Example 14); assay type: in vivo
# Procedure: Improving effect of a fractionated lupulone on lipid metabolism was evaluated using C57BL/6 mice (females). Namely, lupulone was purified from hop pellets (CAS pellets, a product of Saaz, Czech Republic). About 2.5 kg of hop pellets were extracted with 4 L of ethyl acetate 3 times and the extract was concentrated under the reduced pressure to obtain a dark green extract (329.17 g). A portion of the extract (262.7 g) was applied on a silica gel column for fractionation. Chromatography was carried out using a stepwise elution with a hexane-ethyl acetate mixed solution to obtain 15 fractions. The third fraction (41.8 g) was applied on a silica gel column for refractionation and a fraction eluted with a hexane:ethyl acetate (20:1) solution was recrystallized to obtain lupulone (1.88 g, white needle crystals, yield: about 0.094%). Further, 5-week-old C57BL/6NCrj female mice (8 per group) (Japan Charles River) were fed CE2 (Japan Clea) and water for 1 week ad libitum. Then, the animals were divided into 2 groups, i.e., a group fed AIN76A (described in Example 2) with addition of 0.2% cholesterol and 0.3% cellulose (referred to as “group C” hereinafter) and a group fed AIN76A with addition of 0.2% cholesterol and 0.3% lupulone (referred to as “group L” hereinafter). The diets were prepared and administered according to the methods described in Example 2. One week after feeding the test diets, the animals were dissected under non-fasting conditions.
# [5] = purified isocohumulone 10 and 30 mg/kg/day oral, 10 days
"PPARγ activating activity (firefly luciferase, relative to negative control) [3]",Compound,PPARγ/RXR alpha activating activity compared to that with 1 μM pioglitazone [1],PPARγ/RXR alpha activating activity (relative luciferase activity) [1],"insulin resistance (blood insulin concentration upon OGTT) ([2]; oral, 10 consecutive days, water soluble extract 100 and 330 mg/kg/day, purified isocohumulone 10 and 30 mg/kg/day)","glucose tolerance (blood sugar level upon OGTT) ([2]; oral, 10 consecutive days, water soluble extract 100 and 330 mg/kg/day, purified isocohumulone 10 and 30 mg/kg/day, 1 g/kg glucose after 16 h fasting)","insulin concentration before the administration (of glucose) [2, 5]","insulin concentration thereafter (after glucose administration) [2, 5]","cholesterol content per g of liver ([4]; group L 0.3% lupulone in AIN76A + 0.2% cholesterol, one week, non-fasting)",body weight ([4]; group L 0.3% lupulone in diet),body weight gain per calorie intake ([4]; group L 0.3% lupulone in diet)
activity was confirmed,"CC(C)=CCC(=O)C1(O)C(O)=C(C(=O)C(C)C)C(=O)C1CC=C(C)C (stereo not drawn) [isocohumulones, isocohumulone]",almost equivalent,exhibited the activity,amelioration,Amelioration,significantly decreased,tended to keep decreasing,,,
activity was confirmed,"CC(C)=CCC(=O)C1(O)C(O)=C(C(=O)CC(C)C)C(=O)C1CC=C(C)C (stereo not drawn) [isohumulones, isohumulone]",almost equivalent,exhibited the activity,,,,,,,

# More lines, now with the values behind:
Compound,"PPARγ activating activity (firefly luciferase, relative to negative control) [3]",PPARγ/RXR alpha activating activity compared to that with 1 μM pioglitazone [1],PPARγ/RXR alpha activating activity (relative luciferase activity) [1],"insulin resistance (blood insulin concentration upon OGTT) ([2]; oral, 10 consecutive days, water soluble extract 100 and 330 mg/kg/day, purified isocohumulone 10 and 30 mg/kg/day)","glucose tolerance (blood sugar level upon OGTT) ([2]; oral, 10 consecutive days, water soluble extract 100 and 330 mg/kg/day, purified isocohumulone 10 and 30 mg/kg/day, 1 g/kg glucose after 16 h fasting)","insulin concentration before the administration (of glucose) [2, 5]","insulin concentration thereafter (after glucose administration) [2, 5]","cholesterol content per g of liver ([4]; group L 0.3% lupulone in AIN76A + 0.2% cholesterol, one week, non-fasting)",body weight ([4]; group L 0.3% lupulone in diet),body weight gain per calorie intake ([4]; group L 0.3% lupulone in diet)
CC(C)=CCC1=C(O)C(CC=C(C)C)(CC=C(C)C)C(=O)C(C(=O)CC(C)C)=C1O [lupulone],,,,,,,,significant decrease,significant decrease,significantly reduced
"CCC(C)C(=O)C1=C(O)C(O)(C(=O)CC=C(C)C)C(CC=C(C)C)C1=O (stereo not drawn) [isoadhumulones, isoadhumulone]",,almost equivalent,exhibited the activity,,,,,,,
"CC(C)=CCC1=C(O)[C@](O)(CC=C(C)C)C(=O)C(C(=O)CC(C)C)=C1O [humulones, humulone]",activity was confirmed,almost equivalent,exhibited the activity,,,,,,,
"CC(C)=CCC1=C(O)C(O)(CC=C(C)C)C(=O)C(C(=O)C(C)C)=C1O (stereo not drawn) [cohumulones, cohumulone]",activity was confirmed,almost equivalent,exhibited the activity,,,,,,,
